#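 The compound was tested at five concentrations on cells cultured in 96-well plates, with a 48-hour exposure period. At the TGI there is no net growth.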
# Columns and labels:
# Experiment in all cases: inhibition of tumour cell growth, NCI panel, 48 h
# NCI-H522 lung = test system: NCI-H522 lung
# HCT-116 colon = test system: HCT-116 colon
# 786-0 renal = test system: 786-0 renal
# NCI/ADR-RES ovarian = test system: NCI/ADR-RES ovarian
# SW-620 colon = test system: SW-620 colon
# NCI-H460 lung = test system: NCI-H460 lung
# SF-268 CNS = test system: SF-268 CNS
# HOP-62 NSCLC = test system: HOP-62 NSCLC
# SK-MEL-2 melanoma = test system: SK-MEL-2 melanoma
# RXF 393 renal = test system: RXF 393 renal
# OVCAR-8 ovarian = test system: OVCAR-8 ovarian
# MOLT-4 leukemia = test system: MOLT-4 leukemia
# HCC-2998 colon = test system: HCC-2998 colon
# DU-145 prostate = test system: DU-145 prostate
# LOX IMVI melanoma = test system: LOX IMVI melanoma
# HOP-92 NSCLC = test system: HOP-92 NSCLC
# UACC-257 melanoma = test system: UACC-257 melanoma
# SK-MEL-5 melanoma = test system: SK-MEL-5 melanoma
# KM12 colon = test system: KM12 colon
# OVCAR-4 ovarian = test system: OVCAR-4 ovarian
# OVCAR-5 ovarian = test system: OVCAR-5 ovarian
# T-47D breast = test system: T-47D breast
# IGROV1 ovarian = test system: IGROV1 ovarian
# EKVX NSCLC = test system: EKVX NSCLC
# SNB-75 CNS = test system: SNB-75 CNS
# ACHN renal = test system: ACHN renal
# SK-OV-3 ovarian = test system: SK-OV-3 ovarian
# MDA-N = test system: MDA-N
# CCRF-CEM leukemia = test system: CCRF-CEM leukemia
# HT29 colon = test system: HT29 colon
# OVCAR-3 ovarian = test system: OVCAR-3 ovarian
# SK-MEL-28 melanoma = test system: SK-MEL-28 melanoma
# U251 CNS = test system: U251 CNS
# CAKI-1 renal = test system: CAKI-1 renal
# BT-549 breast = test system: BT-549 breast
# A549 NSCLC = test system: A549 NSCLC
# SF-295 CNS = test system: SF-295 CNS
# UACC-62 melanoma = test system: UACC-62 melanoma
# SR leukemia = test system: SR leukemia
# K-562 leukemia = test system: K-562 leukemia
# MDA-MB-435 = test system: MDA-MB-435
# SNB-19 CNS = test system: SNB-19 CNS
# UO-31 renal = test system: UO-31 renal
# TK-10 renal = test system: TK-10 renal
# MDA-MB-231 breast = test system: MDA-MB-231 breast
# SN12C renal = test system: SN12C renal
# RPMI-8226 leukemia = test system: RPMI-8226 leukemia
# MCF7 breast = test system: MCF7 breast
# NCI-H226 lung = test system: NCI-H226 lung
# HS 578T breast = test system: HS 578T breast
# NCI-H23 lung = test system: NCI-H23 lung
# PC-3 prostate = test system: PC-3 prostate
# COLO 205 colon = test system: COLO 205 colon
# SF-539 CNS = test system: SF-539 CNS
# HL-60(TB) leukemia = test system: HL-60(TB) leukemia
# HCT-15 colon = test system: HCT-15 colon
# MALME-3M melanoma = test system: MALME-3M melanoma
# A498 renal = test system: A498 renal
# M14 melanoma = test system: M14 melanoma
smiles,measurement,setting,value
CCOC(=O)/C=C(/C(=O)OCC)n1ccc(=O)n(Cc2cnnn2CCCCOC(C)=O)c1=O,TGI,NCI-H522 lung,42.6 µM
same,TGI,HCT-116 colon,> 100 µM
same,TGI,786-0 renal,> 100 µM
same,TGI,NCI/ADR-RES ovarian,> 100 µM
same,TGI,SW-620 colon,43.2 µM
same,TGI,NCI-H460 lung,> 100 µM
same,TGI,SF-268 CNS,> 100 µM
same,TGI,HOP-62 NSCLC,> 100 µM
same,TGI,SK-MEL-2 melanoma,> 100 µM
same,TGI,RXF 393 renal,> 100 µM
same,TGI,OVCAR-8 ovarian,> 100 µM
same,TGI,MOLT-4 leukemia,> 100 µM
same,TGI,HCC-2998 colon,> 100 µM
same,TGI,DU-145 prostate,> 100 µM
same,TGI,LOX IMVI melanoma,> 100 µM
same,TGI,HOP-92 NSCLC,45.7 µM
same,TGI,UACC-257 melanoma,> 100 µM
same,TGI,SK-MEL-5 melanoma,> 100 µM
same,TGI,KM12 colon,> 100 µM
same,TGI,OVCAR-4 ovarian,> 100 µM
same,TGI,OVCAR-5 ovarian,> 100 µM
same,TGI,T-47D breast,> 100 µM
same,TGI,IGROV1 ovarian,> 100 µM
same,TGI,EKVX NSCLC,> 100 µM
same,TGI,SNB-75 CNS,> 100 µM
same,TGI,ACHN renal,> 100 µM
same,TGI,SK-OV-3 ovarian,> 100 µM
same,TGI,MDA-N,> 100 µM
same,TGI,CCRF-CEM leukemia,30.9 µM
same,TGI,HT29 colon,> 100 µM
same,TGI,OVCAR-3 ovarian,> 100 µM
same,TGI,SK-MEL-28 melanoma,> 100 µM
same,TGI,U251 CNS,> 100 µM
same,TGI,CAKI-1 renal,76.3 µM
same,TGI,BT-549 breast,> 100 µM
same,TGI,A549 NSCLC,> 100 µM
same,TGI,SF-295 CNS,> 100 µM
same,TGI,UACC-62 melanoma,> 100 µM
same,TGI,SR leukemia,> 100 µM
same,TGI,K-562 leukemia,> 100 µM
same,TGI,MDA-MB-435,> 100 µM
same,TGI,SNB-19 CNS,> 100 µM
same,TGI,UO-31 renal,> 100 µM
same,TGI,TK-10 renal,> 100 µM
same,TGI,MDA-MB-231 breast,> 100 µM
same,TGI,SN12C renal,> 100 µM
same,TGI,RPMI-8226 leukemia,> 100 µM
same,TGI,MCF7 breast,> 100 µM
same,TGI,NCI-H226 lung,> 100 µM
same,TGI,HS 578T breast,> 100 µM
same,TGI,NCI-H23 lung,> 100 µM
same,TGI,PC-3 prostate,> 100 µM
same,TGI,COLO 205 colon,46 µM
same,TGI,SF-539 CNS,> 100 µM
C=C(C)C(=O)OC1C[C@H](COC(C)=O)C2CC=C(CO)C2C2OC(=O)C(=C)[C@H]12 (some centres undefined),TGI,NCI-H522 lung,33.8 µM
same,TGI,HCT-116 colon,38.2 µM
same,TGI,786-0 renal,97.1 µM
same,TGI,NCI/ADR-RES ovarian,> 100 µM
same,TGI,SW-620 colon,40 µM
same,TGI,NCI-H460 lung,> 100 µM
same,TGI,SF-268 CNS,60.2 µM
same,TGI,HOP-62 NSCLC,> 100 µM
same,TGI,HL-60(TB) leukemia,76 µM
same,TGI,SK-MEL-2 melanoma,> 100 µM
same,TGI,OVCAR-8 ovarian,> 100 µM
same,TGI,HCT-15 colon,> 100 µM
same,TGI,MOLT-4 leukemia,45.7 µM
same,TGI,HCC-2998 colon,> 100 µM
same,TGI,DU-145 prostate,> 100 µM
same,TGI,LOX IMVI melanoma,> 100 µM
same,TGI,UACC-257 melanoma,> 100 µM
same,TGI,SK-MEL-5 melanoma,> 100 µM
same,TGI,KM12 colon,> 100 µM
same,TGI,OVCAR-5 ovarian,> 100 µM
same,TGI,T-47D breast,> 100 µM
same,TGI,IGROV1 ovarian,> 100 µM
same,TGI,EKVX NSCLC,> 100 µM
same,TGI,SNB-75 CNS,> 100 µM
same,TGI,ACHN renal,> 100 µM
same,TGI,SK-OV-3 ovarian,> 100 µM
same,TGI,MDA-N,> 100 µM
same,TGI,CCRF-CEM leukemia,31.5 µM
same,TGI,HT29 colon,> 100 µM
same,TGI,OVCAR-3 ovarian,> 100 µM
same,TGI,SK-MEL-28 melanoma,> 100 µM
same,TGI,U251 CNS,> 100 µM
same,TGI,MALME-3M melanoma,44.3 µM
same,TGI,CAKI-1 renal,> 100 µM
same,TGI,BT-549 breast,> 100 µM
same,TGI,A549 NSCLC,> 100 µM
same,TGI,SF-295 CNS,> 100 µM
same,TGI,A498 renal,> 100 µM
same,TGI,UACC-62 melanoma,> 100 µM
same,TGI,SR leukemia,65.2 µM
same,TGI,K-562 leukemia,54.4 µM
same,TGI,MDA-MB-435,> 100 µM
same,TGI,SNB-19 CNS,> 100 µM
same,TGI,M14 melanoma,31 µM
same,TGI,UO-31 renal,> 100 µM
same,TGI,TK-10 renal,> 100 µM
same,TGI,MDA-MB-231 breast,> 100 µM
same,TGI,RPMI-8226 leukemia,> 100 µM
same,TGI,MCF7 breast,> 100 µM
same,TGI,NCI-H226 lung,> 100 µM
same,TGI,HS 578T breast,> 100 µM
same,TGI,NCI-H23 lung,> 100 µM
same,TGI,PC-3 prostate,> 100 µM
same,TGI,COLO 205 colon,30 µM
same,TGI,SF-539 CNS,> 100 µM
C#CC(O)/C=C/C(O)CCCC(O)CC#CC(O)C#CCCCCC(O)/C=C/CCCC(O)/C=C/CCCCCCCCCCCCCC(O)C(O)C#CC(=O)O (centres undefined),TGI,NCI-H522 lung,> 25 µM
same,TGI,HCT-116 colon,> 25 µM
same,TGI,786-0 renal,> 25 µM
same,TGI,NCI/ADR-RES ovarian,> 25 µM
same,TGI,NCI-H460 lung,> 25 µM
same,TGI,SF-268 CNS,> 25 µM
same,TGI,HOP-62 NSCLC,> 25 µM
same,TGI,HL-60(TB) leukemia,> 25 µM
same,TGI,SK-MEL-2 melanoma,> 25 µM
same,TGI,RXF 393 renal,> 25 µM
same,TGI,OVCAR-8 ovarian,> 25 µM
same,TGI,HCT-15 colon,> 25 µM
same,TGI,MOLT-4 leukemia,> 25 µM
same,TGI,HCC-2998 colon,> 25 µM
same,TGI,DU-145 prostate,> 25 µM
same,TGI,LOX IMVI melanoma,> 25 µM
same,TGI,HOP-92 NSCLC,> 25 µM
same,TGI,UACC-257 melanoma,> 25 µM
same,TGI,SK-MEL-5 melanoma,> 25 µM
same,TGI,KM12 colon,> 25 µM
same,TGI,OVCAR-4 ovarian,> 25 µM
same,TGI,OVCAR-5 ovarian,> 25 µM
same,TGI,T-47D breast,> 25 µM
same,TGI,IGROV1 ovarian,> 25 µM
same,TGI,EKVX NSCLC,> 25 µM
same,TGI,SNB-75 CNS,> 25 µM
same,TGI,ACHN renal,> 25 µM
same,TGI,SK-OV-3 ovarian,> 25 µM
same,TGI,MDA-N,> 25 µM
same,TGI,CCRF-CEM leukemia,> 25 µM
same,TGI,HT29 colon,> 25 µM
same,TGI,SK-MEL-28 melanoma,> 25 µM
same,TGI,U251 CNS,> 25 µM
same,TGI,MALME-3M melanoma,> 25 µM
same,TGI,CAKI-1 renal,> 25 µM
same,TGI,A549 NSCLC,> 25 µM
same,TGI,SF-295 CNS,> 25 µM
same,TGI,A498 renal,> 25 µM
same,TGI,UACC-62 melanoma,> 25 µM
same,TGI,SR leukemia,> 25 µM
same,TGI,K-562 leukemia,> 25 µM
same,TGI,MDA-MB-435,> 25 µM
same,TGI,SNB-19 CNS,> 25 µM
same,TGI,M14 melanoma,> 25 µM
same,TGI,UO-31 renal,> 25 µM
same,TGI,TK-10 renal,> 25 µM
same,TGI,MDA-MB-231 breast,> 25 µM
same,TGI,SN12C renal,> 25 µM
same,TGI,RPMI-8226 leukemia,> 25 µM
same,TGI,MCF7 breast,> 25 µM
same,TGI,NCI-H226 lung,> 25 µM
same,TGI,HS 578T breast,> 25 µM
same,TGI,NCI-H23 lung,> 25 µM
same,TGI,PC-3 prostate,> 25 µM
same,TGI,COLO 205 colon,> 25 µM
